Measured values from US5439933A (priority 1993, dated 1995).
Converted amounts (≈) assume the structure as drawn. Where two headings read alike, the source gives them in different places. Starred links: 1 amine or outer side, 2 acyl side, 3 side chain; linkers in the order of their positions; H or OH if unused. Positions of bridges follow the written chain, without caps; N, C: chain ends. Non-standard residues stand in square brackets, D forms with d. Residues, ends and D or L forms follow the SMILES beside them. Chains are numbered I, II in the order given. Actinocin(9to1) = Cc1c2oc3c(C)ccc(C(=O)[*:1])c3nc-2c(C(=O)[*:2])c(N)c1=O; NMeV = CN[C@H](C(=O)O)C(C)C; Sar = CNCC(=O)O

What was measured:
[1] = tested on: KB human epidermoid carcinoma cells; test: Cell proliferation assay (cell counts), KB; assay type: cell-based; details: Table 6, KB, read-out: IC50 KB
Method: (§1) Tolytoxin and the other new scytophycin compounds are potent anticancer and antifungal agents. The cytotoxicity of tolytoxin and other new scytophycin compounds was determined using a cell proliferation assay, which tested the effect of the compounds on increases in cell numbers.
(§2) Cell lines were grown in plastic dishes (Falcon) in Eagle's basal medium supplemented with 5% newborn calf serum (KB), Fisher's medium supplemented with 10% horse serum (L1210), Dulbecco's modified Eagle's medium supplemented with 5% heat-inactivated fetal calf serum (LoVo), minimal essential medium supplemented with 2% heat-inactivated chicken serum (HEp-2), RPMI-1640 supplemented with 10% heat-inactivated fetal calf serum (T-47D, COLO-201) or 20% heat-inactivated fetal calf serum (HL-60, KATO-III), or McCoy's 5A supplemented with 10% heat-inactivated fetal calf serum (HBL-100). All cell culture media were supplemented with 50 μg/ml gentamycin sulfate. The cultures were incubated at 37° C. in a humidified atmosphere containing 5% carbon dioxide.
(§3) Cultures were exposed to graded concentrations of tolytoxin and reincubated for 72 hours in the presence of tolytoxin. Three dishes were used for each treatment. Cell numbers were determined by hemacytometer counts. The IC50 for each cell line was determined by plotting the logarithm of the tolytoxin concentration versus growth (cell number as a percentage of the control) of the treated cells.
(§4) The other new scytophycin compounds are also potent cytotoxins. For example, the IC50 of the scytophycins against KB human epidermoid carcinoma, LoVo human adenocarcinoma, and L1210 murine leukemia were determined using the cell proliferation assay described for tolytoxin.

[2] = tested on: SKVLB (multi-drug resistant subline of SKOV3); test: cells; assay type: cell-based, Human; details: for IC50: Homo sapiens, 48 hours, read-out: IC50 SKVLB; for IC50 / Fold-Resistance: Table 7; for IC50 / resistance of the multi-drug resistant cell line: SKVLB; for Fold-Resistance: SKVLB vs SKOV3, 2880 min
[3] = tested on: LoVo human adenocarcinoma cells; test: Cell proliferation assay (cell counts), LoVo; assay type: cell-based; details: Table 6, read-out: IC50 LoVo
Method: as §1, §2, §3, §4

Saccharomyces cerevisae = test: Antifungal agar dilution; assay type: cell-based; details: Saccharomyces cerevisae; for IC50: Table 9
Method: (§5) The new scytophycins are also useful as antifungal agents. Antimicrobial activity was determined by the agar dilution method. Tolytoxin was dissolved in 95% ethanol for addition to cooled, molten agar. Nystatin was solubilized in DMSO and diluted in distilled water. Appropriate solvent controls were also prepared. Fungal cultures were grown on Saboraud dextrose agar. Assay plates were incubated for 48 hours post-inoculation. Yeasts and filamentous fungi were incubated at 25° C.
(§6) Activity was determined using the method described above for tolytoxin.

Sclerotium rofsii 2133 = test: Antifungal agar dilution; assay type: cell-based; details: Sclerotium rofsii 2133
Method: as §5, §6

Candida albicans A26 = test: Antifungal agar dilution; assay type: cell-based
Method: as §5, §6

[4] = tested on: Phytophthora nicotianae H729; test: Antifungal agar dilution; assay type: cell-based; details: Phytophthora nicotianae H729
Method: as §5, §6

[5] = tested on: Thielaviopsis paradoxa 1215; test: Antifungal agar dilution; assay type: cell-based; details: Thielaviopsis paradoxa 1215; for IC50: Table 9
Method: as §5, §6

[6] = tested on: Human ovarian carcinoma cells (SKOV3); test: cells; assay type: cell-based; details: SK-OV-3, Table 7, SKOV3, 48 hours, read-out: IC50 SKOV3
Method: Human ovarian carcinoma cells (SKOV3) and a subline made multi-drug resistant by slowly increasing vinblastine in the culture medium over the course of many passages (SKVLB) were grown in Earle's basal medium (BME) containing 10% fetal calf serum. The SKVLB cells were maintained in the presence of 1 µg/mL vinblastine. The multi-drug resistant cell line is resistant to adriamycin, vinblastine, actinomycin D, and colchicine.
Cell proliferation was estimated by measurement of protein content of the cultured cells, as described by Skehan et al. (1990). Cells were plated into 24-well plates at approximately 10% confluency in BME and were allowed to attach and recover for at least 24 hours. The cells were then treated with the scytophycins or appropriate control for 48 hours. After the incubation, the medium was removed from each well and cells fixed by addition of 10% (w/v) trichloroacetic acid (TCA) (4° C.). The cells were incubated at 4° C. for one hour and then washed five times with water to remove TCA. The TCA-fixed cells were then stained for 30 minutes with 0.4% (w/v) sulforhodamine B prepared in 1% acetic acid. Following the staining, the cell layers were washed four times with 1% acetic acid. The cell layer was dissolved in 10 mM unbuffered tris-hydroxymethylaminomethane base. Absorbance of the solution was determined at 564 nm. Antiproliferative activity is manifested as decreased production of cellular protein.

[7] = tested on: L1210 murine leukemia cells; test: Cell proliferation assay (cell counts), L1210; assay type: cell-based; details: Mus musculus; Table 6; L1210; read-out: IC50 L1210
Method: as §1, §2, §3, §4

actin microfilaments = details: by binding to the end unit of growing actin microfilaments; cited from earlier work
cellular sugar uptake = details: side effect; cited from earlier work
Bipolaris incurvata 2118 = test: Antifungal agar dilution; assay type: cell-based; details: Table 8; Bipolaris incurvata 2118; 48 hours
Method: as §5

[8] = tested on: Alternaria alternata 1715; test: Antifungal agar dilution; assay type: cell-based; details: Table 8; Alternaria alternata 1715; 48 hours
Method: as §5

[9] = tested on: Colletotrichum coccodes 1809; test: Antifungal agar dilution; assay type: cell-based; details: Table 8; Colletotrichum coccodes 1809; 48 hours
Method: as §5

Aspergillus oryzae = test: Antifungal agar dilution; assay type: cell-based; details: Table 8, 48 hours
Method: as §5

[10] = tested on: Trichophyton mentagrophytes A23; test: Antifungal agar dilution; assay type: cell-based; details: Table 8; Trichophyton mentagrophytes A23; 48 hours
Method: as §5

[11] = tested on: Calonectria critalarae 1809; test: Antifungal agar dilution; assay type: cell-based; details: Table 8; Calonectria critalarae 1809; 48 hours
Method: as §5

Rhizoctonia solani 1165 = test: Antifungal agar dilution; assay type: cell-based; details: Table 8; Rhizoctonia solani 1165; 48 hours
Method: as §5

Penicillium notatum = test: Antifungal agar dilution; assay type: cell-based; details: Table 8; Penicillium notatum; 48 hours
Method: as §5

[12] = tested on: Phyllosticta capitalensis 689-5; test: Antifungal agar dilution; assay type: cell-based; details: Table 8; Phyllosticta capitalensis 689-5; 48 hours
Method: as §5

[13] = Table 9, Candida albicans A26, read-out: IC50

Compound | IC50 [1] [nM] | IC50 [2] [nM] | Fold-Resistance [2] | IC50 [3] [nM] | IC50 (Saccharomyces cerevisae) [nM] | MIC (Sclerotium rofsii 2133; Table 9, read-out: IC50) [nM] | MIC (Candida albicans A26; [13]) [nM] | MIC ([4]; Table 9, read-out: IC50) [nM] | IC50 [5] [nM] | IC50 [6] [nM] | IC50 [7] [nM] | resistance of the multi-drug resistant cell line [2] | other results
COC1CC2C=CCC(CC(OC)C(CO)C(OC)CC(OC)C(C)C(C(C)C(O)C(C)CCC(=O)C(C)C(OC)C(C)/C=C/N(C)C=O)OC(=O)/C=C/C(C)=C/C1O)O2 (centres unmarked) [6-Hydroxy-7-O-methylscytophycin E, 6-hydroxy-7-O-methylscytophycin E] | 12 | 300 | 3 | 8 | 64 | 16 (≈ 13.6 ng/mL) | 64 (≈ 54.5 ng/mL) | 16 (≈ 13.6 ng/mL) | 32 | 100 | 6.6 | – | –
COC1CC(OC)C2(CO2)C(OC)CC2CC=CC(CC(O)C(O)/C=C(C)/C=C/C(=O)OC(C(C)C(O)C(C)CCC(=O)C(C)C(OC)C(C)/C=C/N(C)C=O)C1C)O2 (centres unmarked) [6-Hydroxyscytophycin B] | 3.6 | 150 | 3 | 8.2 | 100 | 16 (≈ 13.4 ng/mL) | 200 (≈ 167 ng/mL) | 64 (≈ 53.5 ng/mL) | 32 | 50 | 11 | – | –
COC1CC2CC=CC(CC(O)C/C=C(C)/C=C/C(=O)OC(C(C)C(O)C(C)CCC(=O)C(C)C(OC)C(C)/C=C/N(C)C=O)C(C)C(O)CC(OC)C1C)O2 (centres unmarked) [19-O-demethylscytophycin C] | 9.2 | 25 | 1 | 2.9 | 64 | 4 (≈ 3.17 ng/mL) | 128 (≈ 101 ng/mL) | 8 (≈ 6.34 ng/mL) | 16 | 25 | 12.5 | – | –
COc1cccc2c1C(=O)c1c(O)c3c(c(O)c1C2=O)C[C@@](O)(C(=O)CO)C[C@@H]3O[C@H]1C[C@H](N)[C@H](O)[C@H](C)O1 [Adriamycin] | – | > 100000 | > 250 | – | – | – | – | – | – | 400 | – | resistant | –
C=C1C(C)C2C(Cc3ccccc3)NC(=O)C23OC(=O)C=CC(O)CCCC(C)CC=CC3C1O (centres unmarked) [Cytochalasin B] | – | 30000 | 6 | – | – | – | – | – | – | 5000 | – | – | microfilament formation (actin microfilaments): inhibit microfilament formation; cellular sugar uptake (cellular sugar uptake): inhibits cellular sugar uptake
C[C@@H]1[C@H](O)[C@@H](C)/C=C/C=C/CC/C=C/C=C/C=C/C=C/C(O[C@H]2O[C@H](C)[C@@H](O)[C@H](N)[C@@H]2O)CC2O[C@](O)(CC(O)C(O)CCC(O)CC(O)CC(O)CC(=O)O[C@H]1C)CC(O)C2C(=O)O (some centres unmarked) [Nystatin, reference compound] | – | – | – | – | – | – | – | – | – | – | – | – | MIC (Bipolaris incurvata 2118): 0.25 nM (≈ 0.232 ng/mL); MIC [8]: 0.5 nM (≈ 0.463 ng/mL); MIC [9]: 0.25 nM (≈ 0.232 ng/mL); MIC (Aspergillus oryzae): 0.5 nM (≈ 0.463 ng/mL); MIC [10]: 0.5 nM (≈ 0.463 ng/mL); MIC [11]: 0.25 nM (≈ 0.232 ng/mL); MIC (Rhizoctonia solani 1165): 0.0625 nM (≈ 0.0579 ng/mL); MIC (Penicillium notatum): 0.125 nM (≈ 0.116 ng/mL); MIC [12]: 0.125 nM (≈ 0.116 ng/mL); MIC (Saccharomyces cerevisae; Table 8, 48 hours): 1 nM (≈ 0.926 ng/mL); MIC (Sclerotium rofsii 2133; Table 8, 48 hours): 0.125 nM (≈ 0.116 ng/mL); MIC (Candida albicans A26; Table 8, Candids albicans A26, 48 hours): 1 nM (≈ 0.926 ng/mL); MIC ([4]; Table 8, 48 hours): 1 nM (≈ 0.926 ng/mL); MIC ([5]; Table 8, 48 hours): 0.5 nM (≈ 0.463 ng/mL)
CC[C@]1(O)C[C@@H]2CN(CCc3c([nH]c4ccccc34)[C@@](C(=O)OC)(c3cc4c(cc3OC)N(C)[C@H]3[C@@](O)(C(=O)OC)[C@H](OC(C)=O)[C@]5(CC)C=CCN6CC[C@]43[C@@H]65)C2)C1 [Vinblastine] | – | 10000 | 10,000 | – | – | – | – | – | – | 1 | – | resistant | –
Cc1c2oc3c(C)ccc(C(=O)N[C@@H]4C(=O)N[C@H](C(C)C)C(=O)N5CCC[C@H]5C(=O)N(C)CC(=O)N(C)[C@@H](C(C)C)C(=O)O[C@@H]4C)c3nc-2c(C(=O)N[C@@H]2C(=O)N[C@H](C(C)C)C(=O)N3CCC[C@H]3C(=O)N(C)CC(=O)N(C)[C@@H](C(C)C)C(=O)O[C@@H]2C)c(N)c1=O [actinomycin D] (I: T[dV]P[Sar][NMeV] / II: T[dV]P[Sar][NMeV]; ester I:1-I:C, II:1-II:C; linker I:N-II:N via Actinocin(9to1)) | – | – | – | – | – | – | – | – | – | – | – | resistant | –
COc1cc2c(c(OC)c1OC)-c1ccc(OC)c(=O)cc1[C@@H](NC(C)=O)CC2 [colchicine] | – | – | – | – | – | – | – | – | – | – | – | resistant | –
